# Literature values as cited in patent US20230406931A1, “Adjuvant Durvalumab in Combination with Chemotherapy for Treatment of Cancer” (ASTRAZENECA AB, priority 2020, published 2023).
# Legend:
# [1] = durvalumab versus placebo following definitive concurrent chemoradiation, PACIFIC study; cited from earlier work
# PD-L1 = PD-L1 (Homo sapiens, UniProt Q9NZQ7); conditions: in vitro; cited from earlier work
# xenograft tumor = conditions: xenograft model, via a T-cell dependent mechanism; cited from earlier work
# PD-L1, sequence (Q9NZQ7 19-290): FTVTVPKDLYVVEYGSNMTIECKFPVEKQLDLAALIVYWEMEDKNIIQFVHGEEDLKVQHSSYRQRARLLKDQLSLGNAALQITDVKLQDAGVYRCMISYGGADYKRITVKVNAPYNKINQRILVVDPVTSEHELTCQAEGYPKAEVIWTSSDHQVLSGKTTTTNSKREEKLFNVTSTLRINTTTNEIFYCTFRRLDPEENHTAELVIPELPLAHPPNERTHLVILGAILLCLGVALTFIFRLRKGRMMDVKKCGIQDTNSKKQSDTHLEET
substance,measurement,setting,value
durvalumab: antibody that selectively binds PD-L1 and blocks the binding of PD-L1 to the PD-1 and CD80 receptors,overall survival (OS),[1],improved
same,progression-free survival (PFS),[1],improved
same,relief of PD-L1-mediated suppression of human T-cell activation,PD-L1,relieve PD-L1-mediated suppression of human T-cell activation
same,tumor growth,xenograft tumor,inhibits tumor growth
